Patent publication US8933110B2, “Hepatitis C virus inhibitors” (Enanta Pharmaceuticals, Inc., priority 2010, dated 2015)
Like-named read-outs stand apart in the source and are kept apart here.

Tested on: HCV 1b genotype replicon
Assay: HCV replicon assay (qRT-PCR or luciferase), genotype 1b
Type: cell-based
Details: Hepatitis C virus
Description: HCV replicon cell lines (kindly provided by R. Bartenschlager) isolated from colonies as described by Lohman et al. (Lohman et al. (1999) Science 285: 110-113, expressly incorporated by reference in its entirety) and used for all experiments. The HCV replicon has the nucleic acid sequence set forth in EMBL Accession No.: AJ242651, the coding sequence of which is from nucleotides 1801 to 8406.
The coding sequence of the published HCV replicon was synthesized and subsequently assembled in a modified plasmid pBR322 (Promega, Madison, Wis.) using standard molecular biology techniques. One replicon cell line (“SGR 11-7”) stably expresses HCV replicon RNA which consists of (i) the HCV 5′UTR fused to the first 12 amino acids of the capsid protein, (ii) the neomycin phosphotransferase gene (neo), (iii) the IRES from encephalomyocarditis virus (EMCV) and (iv) HCV NS2 to NS5B genes and the HCV 3′UTR. Another replicon cell line (“Huh-luc/neo-ET”) described by Vrolijk et. al. (Vrolijk et. al. (2003) Journal of Virological Methods 110:201-209, expressly incorporated by reference in its entirety) stably expresses HCV replicon RNA which consists of (i) the HCV 5′UTR fused to the first 12 amino acids of the capsid protein, (ii) the firefly luciferase reporter gene, (iii) the ubiquitin gene, (iv) the neomycin phosphotransferase gene (neo), (v) the IRES from encephalomyocarditis virus (EMCV) and (vi) HCV NS3 to NS5B genes that harbor cell culture adaptive mutations (E1202G, T12801, K1846T) and the HCV 3′UTR.
These cell lines are maintained at 37° C., 5% CO2, 100% relative humidity in DMEM (Cat#11965-084, Invitrogen), with 10% fetal calf serum (“FCS”, Invitrogen), 1% non-essential amino acids (Invitrogen), 1% of Glutamax (Invitrogen), 1% of 100× penicillin/streptomycin (Cat#15140-122, Invitrogen) and Geneticin (Cat#10131-027, Invitrogen) at 0.75 mg/ml or 0.5 mg/ml for 11-7 and Huh-luc/neo-ET cells, respectively.
EC50 values of single agent compounds were determined by HCV RNA detection using quantitative RT-PCR, according to the manufacturer's instructions, with a TAQMAN® One-Step RT-PCR Master Mix Reagents Kit (Cat#AB 4309169, Applied Biosystems) on an ABI Model 7500 thermocycler. EC50 values of combinations are similarly determined by HCV RNA detection using quantitative RT-PCR. The TAQMAN primers to use for detecting and quantifying HCV RNA obtained from Integrated DNA Technologies. HCV RNA is normalized to GAPDH RNA levels in drug-treated cells, which is detected and quantified using the Human GAPDH Endogenous Control Mix (Applied Biosystems, AB 4310884E). Total cellular RNA is purified from 96-well plates using the RNAqueous 96 kit (Ambion, Cat#AM1812). Chemical agent cytotoxicity is evaluated using an MTS assay according to the manufacturer's directions (Promega).
Since clinical drug resistance often develops in viral infections following single agent therapies, there is a need to assess the additive, antagonistic, or synergistic properties of combination therapies. We use the HCV replicon system to assess the potential use of the compound of the present invention or in combination therapies with Interferon alpha, cyclosporine analogs and inhibitors targeting other HCV proteins. The acute effects of a single or combinations of drugs are studied in the “Huh-luc/neo-ET” replicon with each chemical agent titrated in an X or Y direction in a 6 point two-fold dilution curve centered around the EC50 of each drug. Briefly, replicon cells are seeded at 7,000 cells per well in 90 ul DMEM (without phenol red, Invitrogen Cat.#31053-036) per well with 10% FCS, 1% non-essential amino acids, 1% of Glutamax and 1% of 100× penicillin/streptomycin and incubated overnight at 37° C., 5% CO2, 100% relative humidity. […]

[1] = read-out: Genotype-1b replicon EC50 Range
[2] = read-out: Genotype-1b replicon EC50

Row | SMILES | EC50 [1] [nM] | EC50 [2] [nM]
1 | COC(=O)N[C@H]1CCCCOCc2[nH]c(nc2-c2ccc(-c3ccc(-c4c[nH]c([C@@H]5CCCN5C(=O)[C@@H](NC(=O)OC)C(C)C)n4)cc3)cc2)[C@@H]2CCCN2C1=O [Example 83] | < 0.1 | –
2 | COC(=O)N[C@H]1CCCCOCc2[nH]c(nc2-c2ccc(-c3ccc(-c4c[nH]c([C@@H]5CC6(CC6)CN5C(=O)[C@@H](NC(=O)OC)C(C)C)n4)cc3)cc2)[C@@H]2CCCN2C1=O [Example 258] | < 0.1 | 0.014
3 | COC(=O)N[C@H](C(=O)N1CCC[C@H]1c1nc(-c2ccc(-c3ccc(-c4nc5[nH]c4COCCC[C@H](C)[C@H](NC(=O)OC)C(=O)N4CCC[C@@H]54)cc3)cc2)c[nH]1)C(C)C [Example 317] | < 0.1 | –
4 | COC(=O)N[C@H](C(=O)N1CCC[C@H]1c1nc(-c2ccc(-c3ccc(-c4nc5[nH]c4COC/C=C/[C@H](C)[C@H](NC(=O)OC)C(=O)N4CCC[C@@H]54)cc3)cc2)c[nH]1)C(C)C [Example 318] | 0.1 to 1 | –
5 | COC(=O)N[C@H]1CCCCCOCc2[nH]c(nc2-c2ccc(-c3ccc(-c4c[nH]c([C@@H]5CCCN5C(=O)[C@@H](NC(=O)OC)C(C)C)n4)cc3)cc2)[C@@H]2CCCN2C1=O [Example 322] | < 0.1 | –
6 | COC(=O)N[C@H]1Cc2cc(on2)COCc2[nH]c(nc2-c2ccc(-c3ccc(-c4c[nH]c([C@@H]5CCCN5C(=O)[C@@H](NC(=O)OC)C(C)C)n4)cc3)cc2)[C@@H]2CCCN2C1=O [Example 333] | < 0.1 | 0.083
7 | COC(=O)N[C@H]1CCCCOCc2[nH]c(nc2-c2ccc(-c3ccc(-c4nc5[nH]c4COCCCC[C@H](NC(=O)OC)C(=O)N4CCC[C@@H]54)cc3)cc2)[C@@H]2CCCN2C1=O [Example 336] | 0.1 to 1 | 0.175
8 | COC(=O)N[C@H]1C/C=C/COCc2[nH]c(nc2-c2ccc(-c3ccc(-c4c[nH]c([C@@H]5CCCN5C(=O)[C@@H](NC(=O)OC)C(C)C)n4)cc3)cc2)[C@@H]2CCCN2C1=O [Example 344] | < 0.1 | 0.047
9 | COC(=O)N[C@H](C(=O)N1CCC[C@H]1c1nc(-c2ccc(-c3ccc(-c4nc5[nH]c4COCCCCO[C@H](C)[C@H](NC(=O)OC)C(=O)N4CCC[C@@H]54)cc3)cc2)c[nH]1)C(C)C [Example 349] | < 0.1 | –
10 | COC(=O)N[C@H]1COCCCCOCc2[nH]c(nc2-c2ccc(-c3ccc(-c4c[nH]c([C@@H]5CCCN5C(=O)[C@@H](NC(=O)OC)C(C)C)n4)cc3)cc2)[C@@H]2CCCN2C1=O [Example 353] | < 0.1 | 0.023
11 | COC(=O)N[C@H]1CCCCC/C=C\COCc2[nH]c(nc2-c2ccc(-c3ccc(-c4c[nH]c([C@@H]5CCCN5C(=O)[C@@H](NC(=O)OC)C(C)C)n4)cc3)cc2)[C@@H]2CCCN2C1=O [Example 355] | < 0.1 | –
12 | COC(=O)N[C@H]1CCCCCCCCOCc2[nH]c(nc2-c2ccc(-c3ccc(-c4c[nH]c([C@@H]5CCCN5C(=O)[C@@H](NC(=O)OC)C(C)C)n4)cc3)cc2)[C@@H]2CCCN2C1=O [Example 356] | < 0.1 | –
13 | COC(=O)N[C@H]1C/C=C/COCc2[nH]c(nc2-c2ccc(-c3ccc(-c4c[nH]c([C@@H]5CCCN5C(=O)[C@@H](NC(=O)OC)C(C)C)n4)cc3)cc2)CN(C)C1=O [Example 359] | > 1 | –
14 | COC(=O)N[C@H]1CCCCCCOCc2[nH]c(nc2-c2ccc(-c3ccc(-c4c[nH]c([C@@H]5CCCN5C(=O)[C@@H](NC(=O)OC)C(C)C)n4)cc3)cc2)[C@@H]2CCCN2C1=O [Example 366] | < 0.1 | –
15 | COC(=O)N[C@H]1CCCCCCCOCc2[nH]c(nc2-c2ccc(-c3ccc(-c4c[nH]c([C@@H]5CCCN5C(=O)[C@@H](NC(=O)OC)C(C)C)n4)cc3)cc2)[C@@H]2CCCN2C1=O [Example 368] | < 0.1 | –
